Test results published in ChEMBL document CHEMBL5113392, “Novel hybrid pyrrolidinedione-thiazolidinones as potential anticancer agents: Synthesis and biological evaluation” (Eur J Med Chem, 2022).

Assays:
[1] = Selectivity index, ratio of GI50 for human HaCaT cells to GI50 for human HCT116-p53-null cells; format: toxicity; conditions: HaCaT cells versus HCT116-p53-null cells, read-out: RatioGI50
[2] = Selectivity index, ratio of GI50 for human HaCaT cells to GI50 for human SK-OV-3 cells; format: toxicity; conditions: HaCaT cells versus SK-OV-3 cells, read-out: RatioGI50
[3] = Selectivity index, ratio of GI50 for human HaCaT cells to GI50 for human MDA-MB-231 cells; format: toxicity; conditions: HaCaT cells versus MDA-MB-231 cells, read-out: RatioGI50
Jurkat = assay: Anticancer activity against human Jurkat cells assessed as cell growth inhibition incubated for 72 hrs by MTT assay; format: functional
[4] = Selectivity index, ratio of GI50 for human HaCaT cells to GI50 for human MCF7 cells; format: toxicity; conditions: HaCaT cells versus MCF7 cells, read-out: RatioGI50
[5] = Cytotoxicity against human HaCaT cells assessed as cell growth inhibition incubated for 72 hrs by MTT assay; format: toxicity, cell-based
MCF7 [6] = assay: Anticancer activity against human MCF7 cells assessed as cell growth inhibition incubated for 72 hrs by MTT assay; format: functional
[7] = Selectivity index, ratio of GI50 for human HaCaT cells to GI50 for human HeLa cells; format: toxicity; conditions: HaCaT cells versus HeLa cells, read-out: RatioGI50
[8] = Anticancer activity against human HCT116-p53-null cells assessed as cell growth inhibition incubated for 72 hrs by MTT assay; format: functional
U-251 = assay: Anticancer activity against human U-251 cells assessed as cell growth inhibition incubated for 72 hrs by MTT assay; format: functional
[9] = Selectivity index, ratio of GI50 for human HaCaT cells to GI50 for human U-251 cells; format: toxicity; conditions: HaCaT cells versus U-251 cells, read-out: RatioGI50
A549 = assay: Anticancer activity against human A549 cells assessed as cell growth inhibition incubated for 72 hrs by MTT assay; format: functional
MDA-MB-231 = assay: Anticancer activity against human MDA-MB-231 cells assessed as cell growth inhibition incubated for 72 hrs by MTT assay; format: functional
HeLa = assay: Anticancer activity against human HeLa cells assessed as cell growth inhibition incubated for 72 hrs by MTT assay; format: functional
[10] = Selectivity index, ratio of GI50 for human HaCaT cells to GI50 for human HCT-116 cells; format: toxicity; conditions: HaCaT cells versus HCT-116 cells, read-out: RatioGI50
HCT-116 = assay: Anticancer activity against human HCT-116 cells assessed as cell growth inhibition incubated for 72 hrs by MTT assay; format: functional
[11] = Selectivity index, ratio of GI50 for human HaCaT cells to GI50 for human Jurkat cells; format: toxicity; conditions: HaCaT cells versus Jurkat cells, read-out: RatioGI50
SK-OV-3 = assay: Anticancer activity against human SK-OV-3 cells assessed as cell growth inhibition incubated for 72 hrs by MTT assay; format: functional
[12] = Selectivity index, ratio of GI50 for human HaCaT cells to GI50 for human A549 cells; format: toxicity; conditions: HaCaT cells versus A549 cells, read-out: RatioGI50
UO-31 = assay: Anticancer activity against human UO-31 cells assessed as inhibition of cell growth at 10 uM incubated for 48 hrs by SRB assay; format: functional; conditions: UO-31, 48 h, values are per cent of control
Salmon testes DNA = assay: Displacement of methyl green from salmon sperm DNA at 10 uM measured after 2 hrs by fluorescence plate reader method relative to control; format: nucleic-acid assay; conditions: Salmo salar
UACC-62 = assay: Anticancer activity against human UACC-62 cells assessed as inhibition of cell growth at 10 uM incubated for 48 hrs by SRB assay; format: functional
RPMI-8226 = assay: Anticancer activity against human RPMI-8226 cells assessed as inhibition of cell growth at 10 uM incubated for 48 hrs by SRB assay; format: functional
LOX IMVI = assay: Anticancer activity against human LOX IMVI cells assessed as inhibition of cell growth at 10 uM incubated for 48 hrs by SRB assay; format: functional
MCF7 [13] = assay: Anticancer activity against human MCF7 cells assessed as inhibition of cell growth at 10 uM incubated for 48 hrs by SRB assay; format: functional; conditions: MCF7, 48 h, values are per cent of control
MOLT-4 = assay: Anticancer activity against human MOLT-4 cells assessed as inhibition of cell growth at 10 uM incubated for 48 hrs by SRB assay; format: functional
[14] = Cytotoxicity against mitogen activated human peripheral blood lymphocytes assessed as cell growth inhibition incubated for 24 hrs by MTT assay; format: toxicity, cell-based, Lymphocyte
CAKI-1 = assay: Anticancer activity against human CAKI-1 cells assessed as inhibition of cell growth at 10 uM incubated for 48 hrs by SRB assay; format: functional; conditions: CAKI-1, 48 h, values are per cent of control
[15] = Selectivity index, ratio of GI50 for human HaCaT cells to GI50 for human KB 3-1 cells; format: toxicity; conditions: HaCaT cells versus KB 3-1 cells, read-out: RatioGI50
MDA-MB-435 = assay: Anticancer activity against human MDA-MB-435 cells assessed as inhibition of cell growth at 10 uM incubated for 48 hrs by SRB assay; format: functional
KB 3-1 = assay: Anticancer activity against human KB 3-1 cells assessed as cell growth inhibition incubated for 72 hrs by MTT assay; format: functional
[16] = Cytotoxicity against mitogen activated human peripheral blood lymphocytes assessed as cell growth inhibition incubated for 48 hrs by MTT assay; format: toxicity, cell-based, Lymphocyte

| SMILES | selectivity ratio [1] | selectivity ratio [2] | selectivity ratio [3] | GI50 (Jurkat) [µM] | selectivity ratio [4] | GI50 at 72 h [5] [µM] | GI50 (MCF7 [6]) [µM] | selectivity ratio [7] | GI50 [8] [µM] | GI50 (U-251) [µM] | selectivity ratio [9] | GI50 (A549) [µM] | GI50 (MDA-MB-231) [µM] | GI50 (HeLa) [µM] | selectivity ratio [10] | GI50 (HCT-116) [µM] | selectivity ratio [11] | GI50 (SK-OV-3) [µM] | selectivity ratio [12] | other results |
| --- | --- | --- | --- | --- | --- | --- | --- | --- | --- | --- | --- | --- | --- | --- | --- | --- | --- | --- | --- | --- |
| O=C1Nc2ccc(Cl)cc2/C1=C1/SC(=S)N(C2CC(=O)N(c3ccc(Cl)cc3)C2=O)C1=O (stereo not given) | 1 | 1 | 1 | 6.1 | 1 | > 100 | > 100 | 1.72 | > 100 | > 100 | 1 | > 100 | > 100 | 58 | 1 | > 100 | 16.4 | > 100 | 1 | – |
| O=C1CC(N2C(=O)CSC2=S)C(=O)N1c1ccc(O)cc1 (stereo not given) | 1 | 1.64 | 1 | 23.4 | 1 | > 100 | > 100 | 1 | > 100 | > 100 | 1 | > 100 | > 100 | > 100 | 1 | > 100 | 4.27 | 60.8 | 1 | – |
| O=C1CC(N2C(=O)CSC2=S)C(=O)N1c1ccc(Cl)cc1 (stereo not given) | 0.98 | 0.98 | 0.98 | 88.4 | 0.98 | 97.7 | > 100 | 1 | > 100 | > 100 | 0.98 | > 100 | > 100 | > 100 | 0.98 | > 100 | 1.1 | > 100 | 0.98 | growth, % of control at 10 µM (UO-31): 76.3% |
| CC[n+]1c(-c2ccccc2)c2cc(N)ccc2c2ccc(N)cc21 | – | – | – | – | – | – | – | – | – | – | – | – | – | – | – | – | – | – | – | Activity (Salmon testes DNA): 84.1% |
| C=CCOc1cccc(/C=C2\SC(=S)N(C3CC(=O)N(c4ccc(Br)cc4)C3=O)C2=O)c1 (stereo not given) | – | – | – | – | – | – | – | – | – | – | – | – | – | – | – | – | – | – | – | inhibition at 10 µM (UACC-62): 86.8% |
| O=C1Nc2ccccc2/C1=C1/SC(=S)N(C2CC(=O)N(c3ccc(Br)cc3)C2=O)C1=O (stereo not given) | 1 | 1 | 1 | 21.5 | 1 | > 100 | > 100 | 1 | > 100 | > 100 | 1 | > 100 | > 100 | > 100 | 1 | > 100 | 4.65 | > 100 | 1 | inhibition at 10 µM (RPMI-8226): 50%; inhibition at 10 µM (LOX IMVI): 33.8%; growth, % of control at 10 µM (MCF7 [13]): 45.7% |
| C=CCOc1cccc(/C=C2\SC(=S)N(C3CC(=O)N(c4ccc(Cl)cc4)C3=O)C2=O)c1 (stereo not given) | 1 | 1 | 1 | 74 | 1.02 | > 100 | 98 | 1 | > 100 | > 100 | 1 | > 100 | > 100 | > 100 | 1 | > 100 | 1.35 | > 100 | 1 | inhibition at 10 µM (LOX IMVI): 14.2% |
| O=C1Nc2ccccc2/C1=C1/SC(=S)N(C2CC(=O)N(c3ccc(Cl)cc3)C2=O)C1=O (stereo not given) | 1 | 1 | 1 | 49.9 | 1 | > 100 | > 100 | 1 | > 100 | > 100 | 1 | > 100 | > 100 | > 100 | 1 | > 100 | 2 | > 100 | 1 | inhibition at 10 µM (RPMI-8226): 36.3%; growth, % of control at 10 µM (UO-31): 68.5% |
| CCN(CC)c1ccc(/C=C2\SC(=S)N(C3CC(=O)N(c4ccc(Cl)cc4)C3=O)C2=O)cc1 (stereo not given) | – | – | – | – | – | – | – | – | – | – | – | – | – | – | – | – | – | – | – | inhibition at 10 µM (UACC-62): 73.3%; inhibition at 10 µM (MOLT-4): 76% |
| C=CCOc1ccccc1/C=C1\SC(=S)N(C2CC(=O)N(c3ccc(Cl)cc3)C2=O)C1=O (stereo not given) | 10.4 | 1 | 1.01 | 53.3 | 1.25 | > 100 | 80.3 | 2.1 | 9.6 | 91.2 | 1.1 | > 100 | 98.6 | 47.5 | 1.75 | 57.1 | 1.88 | > 100 | 1 | GI50 at 24 h [14]: > 100 µM; growth, % of control at 10 µM (CAKI-1): 72.2%; selectivity ratio [15]: 1; inhibition at 10 µM (MDA-MB-435): 68.2%; GI50 (KB 3-1): > 100 µM; GI50 at 48 h [16]: > 100 µM |
